Reference: patent US20240150396A1 (The Texas A&M University System, priority 2021, published 2024)
Where “and” joins values, the source holds several entries; their conditions need not be identical. Equal values may be shown once. Read-outs that look alike come from different tables or passages of the source. Non-standard residues stand in square brackets, D forms with d. Residues, ends and D or L forms follow the SMILES beside them. *: point of attachment. hPhe = N[CH](CCc1ccccc1)C(=O)O; 4Pal = N[CH](Cc1ccncc1)C(=O)O; AMC = Cc1cc(=O)oc2cc(N*)ccc12; Cbz = O=C(OCc1ccccc1)*

Legend:
cruzain [1] = biological target: T1, cruzain (Trypanosoma cruzi, UniProt P25779); test: biochemical; conditions: pH 7.5; for kinact/KI: irreversible inactivation
Experimental: All enzyme assays were performed at 25° C. Initial rates of the peptidolytic reaction catalyzed by cruzain were measured by monitoring the fluorescence generated by cleavage of the dipeptide-AMC bond. Assays were conducted in 96-well plates (Greiner; flat-bottom, clear black plates) in a total volume of 250 μL, containing either 50 mM MES (pH 7.5), 50 mM TAPSO, 100 mM DEA, 1 mM CHAPS, 1 mM Na2EDTA, 5 mM DTT, and 10% DMSO (v/v) or 50 mM sodium acetate (pH 5.5), 50 mM MES, 100 mM TEA, 1 mM CHAPS, 1 mM Na2EDTA, 5 mM DTT, and 10% DMSO (v/v). Substrates were dissolved in 100% DMSO and were then diluted 10-fold such that when added to reaction mixtures, final DMSO concentration was 10% (v/v). […] Fluorescence was measured on either a SpectraMax M5 (Molecular Devices) or a Synergy HTX (BioTek, Winooski, VT) microplate reader (λex=360 nm, λem=460 nm). Initial rates were determined from continuous kinetic time courses and calculated from the earliest time points, typically at less than 10 min.
(2) Enzyme and compound were preincubated over extended periods of time, and then aliquots were removed and diluted 50-fold to 100-fold into reaction mixtures containing 10 μM Cbz-Phe-Arg-AMC, followed by the assessment of the resulting time courses.
Data for time-dependent inhibition were fitted by several methods.
Values of kobs versus [inhibitor] were then replotted and fitted to eq 4 for which k3 and k4 represent the respective rates of formation and dissolution of the EI* complex as depicted in FIG. 9.
In addition, time-course data were fitted globally by two methods. First, expressions for vs, vi, and kobs were substituted into eq 3 to generate eq 6, which was used to fit time-course data at all concentrations of inhibitors simultaneously. Second, time-course data were fitted using KinTek Explorer as either a single-binding step model with the two kinetic parameters k3/Ki and k4 or a two-step binding mechanism as shown in FIG. 9 from which rate constants k1-k4 are determined (Supporting Information).
Enzyme Assays. The preparation of cruzain and 3CL^pro were described in previous publications.^8, 34 The evaluation of inhibitors was modified from our lab protocol and described briefly as follows.^35 All enzyme assays were conducted in 96-well, clear bottom, black plates at 25° C., and fluorescence emanating from product formation was measured using either a SpectraMax M5 (Molecular Devices) or a Synergy HTX (Biotek) microplate reader, with excitation at λex=360 nm and emission at λem=460 nm. […] Reactions were started with addition of enzyme (typically, to a final concentration of 0.2 nM for cruzain or 40 nM for 3CL^pro), and the time courses were recorded for 0.5-1 h.
Kinetic Data Analysis. All time-course data were fitted to eq. 1, wherein P is the fluorescence generated by formation of AMC or liberated ACC, C is the background constant, vi and vs are respectively initial-state and steady-state reaction rates, t is time, and kobs is the observed rate of conversion of the initial inhibited rate to the final inhibited rate.^46
Overall inhibition constants (Ki* values) were obtained by fitting vs/v0 to eq. 4, wherein vs and v0 are steady-state reaction rates in the presence and absence of inhibitor respectively, [S] and [I] represent the fixed concentration of substrate and variable inhibitor, Km is the Michaelis constant of the substrate.

cruzain [2] = biological target: T1, cruzain; test: Kinetic parameters of peptide substrates for cruzain; format: biochemical; conditions: for Km / kcat / kcat/Km: pH 7.5, 25° C., 10% DMSO; for kcat rel: relative to Cbz-Phe-Arg-AMC
Experimental: All enzyme assays were performed at 25° C. Initial rates of the peptidolytic reaction catalyzed by cruzain were measured by monitoring the fluorescence generated by cleavage of the dipeptide-AMC bond. Assays were conducted in 96-well plates (Greiner; flat-bottom, clear black plates) in a total volume of 250 μL, containing either 50 mM MES (pH 7.5), 50 mM TAPSO, 100 mM DEA, 1 mM CHAPS, 1 mM Na2EDTA, 5 mM DTT, and 10% DMSO (v/v) or 50 mM sodium acetate (pH 5.5), 50 mM MES, 100 mM TEA, 1 mM CHAPS, 1 mM Na2EDTA, 5 mM DTT, and 10% DMSO (v/v). Substrates were dissolved in 100% DMSO and were then diluted 10-fold such that when added to reaction mixtures, final DMSO concentration was 10% (v/v). Reactions were initiated with the addition of 1-10 μL of cruzain (final concentrations: 0.1-3.0 nM (preincubation studies)). Fluorescence was measured on either a SpectraMax M5 (Molecular Devices) or a Synergy HTX (BioTek, Winooski, VT) microplate reader (λex=360 nm, λem=460 nm). Initial rates were determined from continuous kinetic time courses and calculated from the earliest time points, typically at less than 10 min.
Initial velocity data for cruzain-catalyzed reactions of fluorogenic peptide substrates were determined by fitting to eq 1 using GraphPad Prism 6.0 or SigmaPlot 12.0. For eq 1, kcat is the turnover number, [E]t is the concentration of active sites of cruzain, and Ka is the Michaelis constant for the substrate A. Cruzain concentrations were determined by spectrophotometric analysis of purified sample solutions as described.^44

[3] = apparent initial inhibition constant, 25° C., read-out: Ki
[4] = apparent tight-binding inhibition constant, 25° C., read-out: Ki*
[5] = obtained >10 minutes following initiation of reaction by addition of enzyme, read-out: Ki* Cruzain

T1 sequence (P25779 123-467 limits assumed): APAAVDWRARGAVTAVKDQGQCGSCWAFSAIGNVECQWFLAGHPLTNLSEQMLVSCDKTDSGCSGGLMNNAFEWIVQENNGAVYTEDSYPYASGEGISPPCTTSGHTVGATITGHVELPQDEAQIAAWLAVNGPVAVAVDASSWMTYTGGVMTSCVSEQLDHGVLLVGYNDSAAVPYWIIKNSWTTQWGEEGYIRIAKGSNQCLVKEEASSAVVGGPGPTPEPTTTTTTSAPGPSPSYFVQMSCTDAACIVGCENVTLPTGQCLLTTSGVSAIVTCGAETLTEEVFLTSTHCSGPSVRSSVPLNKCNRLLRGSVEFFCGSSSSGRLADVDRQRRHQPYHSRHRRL

Molecule	Ki (cruzain [1]; [3]) [µM]	Ki (cruzain [1]; [4]) [µM]	Km (cruzain [2]) [µM]	kcat (cruzain [2])	kcat/Km (cruzain [2])	kcat rel (cruzain [2])	also measured
CC(C)C[C@H](NC(=O)OCc1ccccc1)C(=O)N[C@H](/C=C/c1ccccn1)CCc1ccccc1 [Compound 18, Benzyl ((S)-4-Methyl-1-oxo-1-(((S,E)-5-phenyl-1-(pyridin-2-yl)-pent-1-en-3-yl)amino)pentan-2-yl)carbamate]	7.8 ± 0.6	1.42					
Cc1cc(=O)oc2cc(NC(=O)[C@H](CCc3ccccc3)NC(=O)[C@H](Cc3ccncc3)NC(=O)OCc3ccccc3)ccc12 [Compound S8, Cbz-(4-Pyr)Ala-hPhe-AMC] (Cbz-[4Pal]-[hPhe]-{AMC})			4.6	5.3 s⁻¹ and 5.3 ± 0.2 s⁻¹	1.1e+06 ± 100000 M⁻¹ s⁻¹	0.55	
NC(=O)/C=C/[C@H](Cc1ccccc1)NC(=O)[C@H](Cc1ccccc1)NC(=O)OCc1ccccc1 [Compound 2, Benzyl ((S)-1-(((S,E)-5-Amino-5-oxo-1-phenylpent-3-en-2-yl)-amino)-1-oxo-3-phenylpropan-2-yl)carbamate]	37 ± 2						kinact/KI (cruzain [1]; 25° C.): 22 M⁻¹ s⁻¹ and 21.7 ± 0.8 M⁻¹ s⁻¹
O=C(N[C@@H](Cc1ccccc1)C(=O)N[C@H](CO)Cc1ccccc1O)OCc1ccccc1 [Compound 51]							Ki (cruzain [1]; [5]): > 10 µM
C[C@@H](/C=C/c1ccccn1)NC(=O)[C@H](Cc1ccccc1)NC(=O)OCc1ccccc1 [Compound 19, Benzyl ((S)-1-Oxo-3-phenyl-1-(((S,E)-4-(pyridin-2-yl)but-3-en-2-yl)amino)propan-2-yl)carbamate]		4.8 ± 0.2					
O=C(N[C@@H](Cc1ccccc1)C(=O)N[C@H](/C=C/c1ccncc1)Cc1ccccc1)OCc1ccccc1 [Compound 21, Benzyl ((S)-1-Oxo-3-phenyl-1-(((S,E)-1-phenyl-4-(pyridin-4-yl)-but-3-en-2-yl)amino)propan-2-yl)carbamate]		5.5 ± 0.2					
Cc1cc(=O)oc2cc(NC(=O)C(Cc3ccncc3)NC(=O)C(Cc3ccccc3)NC(=O)OCc3ccccc3)ccc12 (stereo not drawn) [Compound S5, Cbz-Phe-(4-Pyr)Ala-AMC] (Cbz-Phe-[4Pal]-{AMC}; configuration not given here)			3.7	7.5 ± 0.5 s⁻¹	2e+06 ± 400000 M⁻¹ s⁻¹	0.76	
CN1CCN(C(=O)N[C@@H](Cc2ccccc2)C(=O)N[C@H](/C=C/c2ccccn2)CCc2ccccc2)CC1 [Compound 14, 4-Methyl-N—((S)-1-oxo-3-phenyl-1-(((S,E)-5-phenyl-1-(pyridin-2-yl)pent-1-en-3-yl)amino)propan-2-yl)piperazine-1-carboxamide]		3.4					
Cc1cc(=O)oc2cc(NC(=O)C(CCc3ccccc3)NC(=O)C(Cc3ccccc3)NC(=O)N3CCN(C)CC3)ccc12 (stereo not drawn) [Compound S7, NMePip-Phe-hPhe-AMC]			3.1 ± 0.3	4.0 ± 0.1 s⁻¹	1.3e+06 M⁻¹ s⁻¹ and 1.3e+06 ± 100000 M⁻¹ s⁻¹	0.42	
Cc1cc(=O)oc2cc(NC(=O)C(CCc3ccccc3)NC(=O)C(CCCN=C(N)N)NC(=O)OCc3ccccc3)ccc12 (stereo not drawn) [Compound S10, Cbz-Arg-hPhe-AMC]			6.8	4.9 s⁻¹ and 4.9 ± 0.1 s⁻¹	700000 ± 40000 M⁻¹ s⁻¹	0.51	
Cc1cc(=O)oc2cc(NC(=O)[C@H](Cc3ccccc3)NC(=O)[C@H](Cc3ccccc3)NC(=O)N3CCN(C)CC3)ccc12 [Compound S11, NMePip-Phe-Phe-AMC]			14 ± 4	2.8 ± 0.06 s⁻¹	200000 ± 40000 M⁻¹ s⁻¹	0.29	
Cc1cc(=O)oc2cc(NC(=O)C(CCc3ccccc3)NC(=O)C(CC(C)C)NC(=O)OCc3ccccc3)ccc12 (stereo not drawn) [Compound S3, Cbz-Leu-hPhe-AMC] (Cbz-Leu-[hPhe]-{AMC}; configuration not given here)			0.8 ± 0.2	3.0 ± 0.2 s⁻¹	4e+06 ± 1e+06 M⁻¹ s⁻¹	0.21	
C[n+]1ccc(/C=C/[C@H](Cc2ccccc2)NC(=O)[C@H](Cc2ccccc2)NC(=O)OCc2ccccc2)cc1 [Compound 22, 4-((S,E)-3-((S)-2-(((Benzyloxy)carbonyl)amino)-3-phenylpropanamido)-4-phenylbut-1-en-1-yl)-1-methylpyridin-1-ium Iodide]	92 ± 5	4 ± 0.1					
N—((S)-1-(((2S,3S)-3-hydroxy-1,2,3,4-tetrahydronaphthalen-2-yl)amino)-1-oxo-3-phenylpropan-2-yl)-4-methylpiperazine-1-carboxamide and N—((S)-1-(((2R,3R)-3-hydroxy-1,2,3,4-tetrahydronaphthalen-2-yl)amino)-1-oxo-3-phenylpropan-2-yl)-4-methylpiperazine-1-carboxamide [Compound 50]		> 100					Ki (cruzain [1]; [5]): > 100 µM
Cc1cc(=O)oc2cc(NC(=O)[C@H](Cc3ccccc3)NC(=O)[C@H](Cc3ccccc3)NC(=O)OCc3ccccc3)ccc12 [Compound S9, Cbz-Phe-Phe-AMC] (Cbz-Phe-Phe-{AMC})			0.34	0.26 ± 0.01 s⁻¹	800000 ± 200000 M⁻¹ s⁻¹	0.03	
NC(=O)/C=C/[C@H](CCc1ccccc1)NC(=O)[C@H](Cc1ccccc1)NC(=O)OCc1ccccc1 [Compound 3, Benzyl ((S)-1-(((S,E)-6-Amino-6-oxo-1-phenylhex-4-en-3-yl)-amino)-1-oxo-3-phenylpropan-2-yl)carbamate]	3 ± 1						kinact/KI (cruzain [1]; 25° C.): 1700 ± 500 M⁻¹ s⁻¹
O=C(N[C@@H](Cc1ccccc1)C(=O)N[C@H](/C=C/c1ccncn1)Cc1ccccc1)OCc1ccccc1 [Compound 23, Benzyl ((S)-1-Oxo-3-phenyl-1-(((S,E)-1-phenyl-4-(pyrimidin-4-yl)-but-3-en-2-yl)amino)propan-2-yl)carbamate]	10.8 ± 1.4	1.14 ± 0.07					
Cc1cc(=O)oc2cc(NC(=O)[C@H](CCc3ccccc3)NC(=O)[C@H](Cc3ccccc3)NC(=O)OCc3ccccc3)ccc12 [Compound S2, Cbz-Phe-hPhe-AMC] (Cbz-Phe-[hPhe]-{AMC})			0.26 ± 0.06	2.0 ± 0.2 s⁻¹	8e+06 M⁻¹ s⁻¹ and 8e+06 ± 2e+06 M⁻¹ s⁻¹	0.21	
O=C(N[C@@H](Cc1ccccc1)C(=O)N[C@H](/C=C/S(=O)(=O)c1ccccc1)Cc1ccccc1)OCc1ccccc1 [Compound 1]							Ki (cruzain [1]; [5]): 0.0036 µM
CN1CCN(C(=O)N[C@@H](Cc2ccccc2)C(=O)N[C@H](/C=C/C(N)=O)CCc2ccccc2)CC1 [Compound 4, N—((S)-1-(((S,E)-6-Amino-6-oxo-1-phenylhex-4-en-3-yl)amino)-1-oxo-3-phenylpropan-2-yl)-4-methylpiperazine-1-carboxamide]	3.4 ± 0.4						kinact/KI (cruzain [1]; 25° C.): 1900 ± 200 M⁻¹ s⁻¹
